{"source": "patent US20250161299A1", "about": "“ORAL PCLX-001 IN THE TREATMENT OF HUMAN CANCER” (PACYLEX PHARMACEUTICALS INC., priority 2022, published 2025)", "key": {"[1]": {"test_system": "Myeloma cultured human cancer cells", "settings": "first panel, mean among sensitive cell lines, read-out: EC50 mean +/− SD; cited from earlier work"}, "[2]": {"settings": "GLP non-clinical safety testing; cited from earlier work"}, "[3]": {"test_system": "Bruton tyrosine kinase (BTK)", "settings": "models of human lymphoma; cited from earlier work"}, "human NMT2": {"target": "human NMT2 (Homo sapiens, UniProt O60551)", "sequence (O60551 whole entry)": "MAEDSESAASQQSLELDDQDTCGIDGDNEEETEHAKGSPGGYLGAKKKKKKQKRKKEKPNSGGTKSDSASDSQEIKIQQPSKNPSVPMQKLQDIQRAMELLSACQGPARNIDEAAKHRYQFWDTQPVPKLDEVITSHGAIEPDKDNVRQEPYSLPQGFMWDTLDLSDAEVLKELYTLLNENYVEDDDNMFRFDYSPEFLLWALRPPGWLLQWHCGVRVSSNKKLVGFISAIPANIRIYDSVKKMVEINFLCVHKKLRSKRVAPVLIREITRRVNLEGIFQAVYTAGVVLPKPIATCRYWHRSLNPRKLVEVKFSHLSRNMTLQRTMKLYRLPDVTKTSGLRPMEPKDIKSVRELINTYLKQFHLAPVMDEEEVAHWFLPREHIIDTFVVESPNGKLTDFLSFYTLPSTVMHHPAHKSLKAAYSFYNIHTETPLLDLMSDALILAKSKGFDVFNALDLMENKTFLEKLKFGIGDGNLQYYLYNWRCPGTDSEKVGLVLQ", "assay": "Inhibition of N-myristoyltransferase NMT2", "type": "biochemical"}, "[4]": {"test_system": "Colon cultured human cancer cells", "settings": "mean among sensitive cell lines, read-out: IC50 mean +/− SD, cited from earlier work"}, "[5]": {"assay": "Oral bioavailability in animal models", "type": "in vivo"}, "[6]": {"test_system": "Bladder cultured human cancer cells", "settings": "mean among sensitive cell lines (EC50<500 nM or IC50<500 nM), cited from earlier work"}, "[7]": {"assay": "Allometric scaling from animal maximally tolerated doses to predict human daily oral MTD (www.truedose.app)", "description": "The allometric scaling is based on toxicity, and the toxicity is that which establishes the Maximally Tolerated Dose (MTD) in animal studies. In mice, one toxicity study established the MTD to be 35 mg/kg. […]. […] It was not expected that, as shown herein, doses markedly lower than 180 mg daily in humans would have anticancer effects.\nAllometric scaling is a means by which PK results from animal studies can be used to predict human drug exposure for a range of drug doses. In this case, allometric scaling was performed using representative values from the PK studies with daily oral PCLX-001 administration for 14 or 28 days in non-human species. These inputs were analyzed with www.truedose.app to predict the Maximally Tolerated Dose we would see in this phase one clinical trial (FIG. 2). […]"}, "[8]": {"test_system": "Pancreas cultured human cancer cells", "settings": "mean among sensitive cell lines, cited from earlier work"}, "[9]": {"test_system": "Prostate cultured human cancer cells", "settings": "second panel, mean among sensitive cell lines, read-out: IC50 mean +/− SD; cited from earlier work"}, "[10]": {"test_system": "Neuroblastoma cultured human cancer cells", "settings": "second panel, mean among sensitive cell lines, read-out: IC50 mean +/− SD; cited from earlier work"}, "[11]": {"test_system": "Lymphoma cultured human cancer cells", "settings": "mean among sensitive cell lines, cited from earlier work; for IC50: read-out: IC50 mean +/− SD"}, "implanted human tumors [12]": {"test_system": "implanted human tumors", "assay": "Anticancer efficacy in mice bearing implanted human tumors", "type": "in vivo, mouse", "settings": "in any given experiment"}, "[13]": {"test_system": "Ovary cultured human cancer cells", "settings": "second panel, mean among sensitive cell lines, read-out: IC50 mean +/− SD; cited from earlier work"}, "[14]": {"assay": "Phase I trial toxicity assessment (dose limiting toxicities, CTCAE version 5.0)", "type": "in vivo, human", "settings": "for hematopoietic profile and biochemistry / protocol defined dose limiting toxicities: 20 mg oral daily", "description": "The subjects were assessed for toxicity using daily diary entries, clinical assessments at baseline, day 8, day 15, day 22, and day 28. Dose limiting toxicities were DLTs defined as the following cycle 1 CTCAE version 5.0 adverse events: Gr 4 platelets, Gr≥3 platelets with bleeding and/or transfusions, Gr 4 ANC for ≥7 days, Gr≥3 febrile neutropenia, and Gr≥3 non-hematological toxicity."}, "[15]": {"assay": "PK and maximally tolerated dose, daily oral administration, dog"}, "[16]": {"test_system": "Melanoma cultured human cancer cells", "settings": "mean among sensitive cell lines, cited from earlier work; for IC50: read-out: IC50 mean +/− SD"}, "implanted human tumors [17]": {"test_system": "implanted human tumors", "settings": "cited from earlier work"}, "[18]": {"test_system": "Lung cultured human cancer cells", "settings": "mean among sensitive cell lines, cited from earlier work; for IC50: read-out: IC50 mean +/− SD"}, "[19]": {"test_system": "Breast cultured human cancer cells", "settings": "mean among sensitive cell lines, cited from earlier work"}, "[20]": {"settings": "first panel, read-out: EC50 mean +/− SD"}, "[21]": {"settings": "second panel, read-out: IC50 mean +/− SD"}}, "note": "“Also recorded” adds a separate entry of the source. Where two headings read alike, the source gives them in different places."}
{"smiles": "Cc1c(NS(=O)(=O)c2c(Cl)cc(-c3ccnc(N4CCNCC4)c3)cc2Cl)c(CC(C)C)nn1C", "note": "[PCLX-001, 2,6-dichloro-N-(3-isobutyl-1,5-dimethyl-1H-pyrazol-4-yl)-4-(2-(piperazin-1-yl)pyridin-4-yl)benzene sulfonamide]", "values": [{"measurement": "EC50", "setting": "[1]", "result": "144 ± 44.7", "unit": "nM"}, {"measurement": "dose limiting toxicity", "setting": "[2]", "result": "diarrhea was dose limiting"}, {"measurement": "BTK modification and downstream signaling", "setting": "[3]", "result": "profoundly inhibited"}, {"measurement": "inhibition of human NMT2", "setting": "human NMT2", "result": "potent"}, {"measurement": "IC50", "setting": "[4]; second panel", "result": "158 ± 27.4", "unit": "nM"}, {"measurement": "IC50", "setting": "[4]; third panel", "result": "210 ± 85.4", "unit": "nM"}, {"measurement": "oral bioavailability", "setting": "[5]", "result": "complete oral bioavailability"}, {"measurement": "EC50", "setting": "[6]; [20]", "result": "155 ± 49.7", "unit": "nM"}, {"measurement": "IC50", "setting": "[6]; [21]", "result": "172 ± 79.8", "unit": "nM"}, {"measurement": "Allometric prediction of human MTD", "setting": "[7]; scaled from dog MTD", "result": 137, "unit": "mg mg/70 kg"}, {"measurement": "Allometric prediction of human MTD", "setting": "[7]; scaled from mouse MTD", "result": 180, "unit": "mg mg/70 kg"}, {"measurement": "Allometric prediction of human MTD", "setting": "[7]; scaled from rat MTD", "result": 1300, "unit": "mg mg/70 kg"}, {"measurement": "EC50", "setting": "[8]; [20]", "result": "109 ± 90", "unit": "nM"}, {"measurement": "IC50", "setting": "[8]; [21]", "result": "77.7 ± 13.7", "unit": "nM"}, {"measurement": "IC50", "setting": "[9]", "result": "85.4 ± 59.2", "unit": "nM"}, {"measurement": "IC50", "setting": "[10]", "result": "230 ± 183", "unit": "nM"}, {"measurement": "EC50", "setting": "[11]; [20]", "result": 80.9, "unit": "nM"}, {"measurement": "IC50", "setting": "[11]; second panel", "result": "138 ± 55.8", "unit": "nM"}, {"measurement": "IC50", "setting": "[11]; third panel", "result": "230 ± 107", "unit": "nM"}, {"measurement": "effective dose relative to the dose that produced mouse toxicity", "setting": "implanted human tumors [12]", "result": "greater than 50%"}, {"measurement": "IC50", "setting": "[13]", "result": "76.7 ± 7.6", "unit": "nM"}, {"measurement": "hematopoietic profile and biochemistry", "setting": "[14]; Patient 1", "result": "remained normal; also recorded: no evidence of toxicity"}, {"measurement": "protocol defined dose limiting toxicities", "setting": "[14]; Patient 1, 28 day cycle", "result": "did not experience any dose limiting toxicities; also recorded: no protocol defined dose limiting toxicities"}, {"measurement": "hematopoietic profile and biochemistry", "setting": "[14]; Patient 2", "result": "remained normal"}, {"measurement": "protocol defined dose limiting toxicities", "setting": "[14]; Patient 2", "result": "no protocol defined dose limiting toxicities"}, {"measurement": "drug related toxicities", "setting": "[14]; Patient 3, daily PCLX-001, two 28 day cycles", "result": "No drug related toxicities were identified"}, {"measurement": "Maximally Tolerated Dose daily oral administration", "setting": "[15]", "result": 4, "unit": "mg/kg"}, {"measurement": "EC50", "setting": "[16]; [20]", "result": "134 ± 53.9", "unit": "nM"}, {"measurement": "IC50", "setting": "[16]; second panel", "result": "208 ± 99.5", "unit": "nM"}, {"measurement": "IC50", "setting": "[16]; third panel", "result": "157 ± 192", "unit": "nM"}, {"measurement": "anticancer activity in mice bearing human cancers", "setting": "implanted human tumors [17]; 10 mg/kg or lower", "result": "no evident anticancer activity"}, {"measurement": "anti-cancer effects in mice with implanted human tumors", "setting": "implanted human tumors [17]; 35 mg/kg and higher doses", "result": "had anti-cancer effects"}, {"measurement": "response of human cancers grown in immunodeficient mice", "setting": "implanted human tumors [17]; preclinical studies", "result": "complete remissions"}, {"measurement": "EC50", "setting": "[18]; [20]", "result": "151 ± 88.2", "unit": "nM"}, {"measurement": "IC50", "setting": "[18]; second panel", "result": "184 ± 82.8", "unit": "nM"}, {"measurement": "IC50", "setting": "[18]; third panel", "result": "154 ± 111", "unit": "nM"}, {"measurement": "EC50", "setting": "[19]; [20]", "result": "101 ± 96.4", "unit": "nM"}, {"measurement": "IC50", "setting": "[19]; [21]", "result": "161 ± 47.9", "unit": "nM"}]}
